Tests used:
[1] = system: purple deadnettle (Lamium purpureum L; LAMPU); test: Postemergence herbicidal activity, greenhouse, visual injury: purple deadnettle; assay type: in vivo; set-up: key: visual injury, 0–100%: 0 = no injury, 100 = complete kill
Experimental: (§1) Evaluation of Postemergence Herbicidal Safening in Cereal Crops
(§2) Seeds of the desired test plant species were planted in Sun Gro MetroMix® 306 planting mixture, which typically has a pH of 6.0 to 6.8 and an organic matter content of about 30 percent, in plastic pots with a surface area of 103.2 square centimeters (cm^2). When required to ensure good germination and healthy plants, a fungicide treatment and/or other chemical or physical treatment was applied. The plants were grown for 7-36 days (d) in a greenhouse with an approximate 14-hour (h) photoperiod which was maintained at about 18° C. during the day and 17° C. during the night. Nutrients and water were added on a regular basis and supplemental lighting was provided with overhead metal halide 1000-Watt lamps as necessary. The plants were employed for testing when they reached the second or third true leaf stage.
(§3) Weighed amounts of esters (methyl) or salts (TEA [triethylammonium], K [potassium]) of 4-amino-3-chloro-6-(4-chloro-2-fluoro-3-methoxyphenyl)pyridine-2-carboxylic acid (Compound 1) were dissolved in a volume of 97:3 volume/volume (v/v) acetone/dimethylsulfoxide (DMSO) to obtain stock solutions. […] The concentrated stock solutions were diluted with an aqueous mixture of 1.5% v/v of Agri-dex crop oil concentrate to provide the appropriate application rates. Compound requirements are based upon a 12 mL application volume at a rate of 187 liters per hectare (L/ha). Stocks solutions of the safeners were prepared following the same procedure. Spray solutions of the safeners and experimental compound mixtures were prepared by adding the stock solutions to the appropriate amount of dilution solution to form a 12 mL spray solution with active ingredients in two-way combinations. Formulated compounds were applied to the plant material with an overhead Mandel track sprayer equipped with 8002E nozzles calibrated to deliver 187 L/ha over an application area of 0.503 square meters (m^2) at a spray height of 18 inches (43 centimeters (cm)) above average plant canopy. Control plants were sprayed in the same manner with the solvent blank.
(§4) The treated plants and control plants were placed in a greenhouse as described above and watered by sub-irrigation to prevent wash-off of the test compounds. After 20-22 d, the condition of the test plants as compared with that of the control plants was determined visually and scored on a scale of 0 to 100 percent where 0 corresponds to no injury and 100 corresponds to complete kill.
(§5) Colby's equation was used to determine the herbicidal effects expected from the mixtures (Colby, S. R. Calculation of the synergistic and antagonistic response of herbicide combinations. Weeds 1967, 15, 20-22.).
(§6) The following equation was used to calculate the expected activity of mixtures containing two active ingredients, A and B: Expected=A+B−(A×B/100)
(§7) A=observed efficacy of active ingredient A at the same concentration as used in the mixture.
(§8) B=observed efficacy of active ingredient B at the same concentration as used in the mixture.

barley (HORVW) = test: Postemergence herbicidal safening, greenhouse, visual injury: barley (HORVW)
[2] = system: wheat (Triticum aestivum L; TRZAW); test: Postemergence herbicidal safening, greenhouse, visual injury: wheat (TRZAW); assay type: in vivo
Experimental: as §1, §2, §3, §4, §5, §6, §7, §8

[3] = system: wheat (Triticum aestivum L; TRZAS); test: Postemergence herbicidal safening, greenhouse, visual injury: wheat; assay type: in vivo; conditions: for TRZAS Ob: applied alone
Experimental: as §1, §2, §3, §4, §5, §6, §7, §8

[4] = system: durum wheat (Triticum durum L; TRZDU); test: Postemergence herbicidal safening, greenhouse, visual injury: durum wheat; assay type: in vivo
Experimental: as §1, §2, §3, §4, §5, §6, §7, §8

[5] = system: barley (Hordeum vulgare L; HORVS); test: Postemergence herbicidal safening, greenhouse, visual injury: barley; assay type: in vivo; conditions: for HORVS Ob: applied alone
Experimental: as §1, §2, §3, §4, §5, §6, §7, §8

[6] = system: corn poppy (Papaver rhoeas L; PAPRH); test: Postemergence herbicidal activity, greenhouse, visual injury: corn poppy; assay type: in vivo; conditions: for PAPRH Ob: applied alone
Experimental: as §1, §2, §3, §4, §5, §6, §7, §8

[7] = system: bird's-eye speedwell (Veronica persica L; VERPE); test: Postemergence herbicidal activity, greenhouse, visual injury: bird's-eye speedwell; assay type: in vivo; conditions: applied alone
Experimental: as §1, §2, §3, §4, §5, §6, §7, §8

[8] = system: Russian thistle (Salsola iberica L; SASKR); test: Postemergence herbicidal activity, greenhouse, visual injury: Russian thistle; assay type: in vivo; conditions: applied alone
Experimental: as §1, §2, §3, §4, §5, §6, §7, §8

[9] = system: cleavers (Galium aparine L; GALAP); test: Postemergence herbicidal activity, greenhouse, visual injury: cleavers; assay type: in vivo; conditions: applied alone
Experimental: as §1, §2, §3, §4, §5, §6, §7, §8

[10] = system: chickweed (Stellaria media L; STEME); test: Postemergence herbicidal activity, greenhouse, visual injury: chickweed; assay type: in vivo; conditions: applied alone
Experimental: as §1, §2, §3, §4, §5, §6, §7, §8

[11] = system: wild pansy (Viola tricolor L; VIOTR); test: Postemergence herbicidal activity, greenhouse, visual injury: wild pansy; assay type: in vivo; conditions: applied alone
Experimental: as §1, §2, §3, §4, §5, §6, §7, §8

[12] = system: wild buckwheat (Polygonum convolvulus L; POLCO); test: Postemergence herbicidal activity, greenhouse, visual injury: wild buckwheat; assay type: in vivo; conditions: applied alone
Experimental: as §1, §2, §3, §4, §5, §6, §7, §8

SMILES: O=C(O)C1=NOC(c2ccccc2)(c2ccccc2)C1 [Isoxadifen]
- LAMPU Ob (Observed values) ([1]; safener 4.4 g/ha alone): 0
- LAMPU Ob (Observed values) ([1]; safener 8.8 g/ha alone): 0
- LAMPU Ob (Observed values) ([1]; safener 17.5 g/ha alone): 0
- LAMPU Ob (Observed values) ([1]; safener 35 g/ha alone): 0
- HORVW Ob (Observed values) (barley (HORVW); safener 4.4 g/ha alone): 0%
- HORVW Ob (Observed values) (barley (HORVW); safener 8.8 g/ha alone): 0%
- HORVW Ob (Observed values) (barley (HORVW); safener 17.5 g/ha alone): 0%
- HORVW Ob (Observed values) (barley (HORVW); safener 35 g/ha alone): 0%
- TRZAW Ob (Observed values) ([2]; safener 4.4 g/ha alone): 0%
- TRZAW Ob (Observed values) ([2]; safener 8.8 g/ha alone): 0%
- TRZAW Ob (Observed values) ([2]; safener 17.5 g/ha alone): 0%
- TRZAW Ob (Observed values) ([2]; safener 35 g/ha alone): 0%
- TRZAS Ob (Observed values) ([3]; safener 4.4 g/ha alone): 0
- TRZAS Ob (Observed values) ([3]; safener 8.8 g/ha alone): 0
- TRZAS Ob (Observed values) ([3]; safener 17.5 g/ha alone): 0
- TRZAS Ob (Observed values) ([3]; safener 35 g/ha alone): 0
- TRZDU Ob (Observed values) ([4]; safener 4.4 g/ha alone): 0%
- TRZDU Ob (Observed values) ([4]; safener 8.8 g/ha alone): 0%
- TRZDU Ob (Observed values) ([4]; safener 17.5 g/ha alone): 0%
- TRZDU Ob (Observed values) ([4]; safener 35 g/ha alone): 0%
- HORVS Ob (Observed values) ([5]; safener 4.4 g/ha alone): 0
- HORVS Ob (Observed values) ([5]; safener 8.8 g/ha alone): 0
- HORVS Ob (Observed values) ([5]; safener 17.5 g/ha alone): 0
- HORVS Ob (Observed values) ([5]; safener 35 g/ha alone): 0
- PAPRH Ob (Observed values) ([6]; safener 4.4 g/ha alone): 0
- PAPRH Ob (Observed values) ([6]; safener 8.8 g/ha alone): 0
- PAPRH Ob (Observed values) ([6]; safener 17.5 g/ha alone): 0
- PAPRH Ob (Observed values) ([6]; safener 35 g/ha alone): 0

SMILES: CCOC(=O)C1=NN(c2ccc(Cl)cc2Cl)C(C)(C(=O)OCC)C1 (centres unmarked) [Mefenpyr-diethyl]
- LAMPU Ob (Observed values) ([1]; safener 4.4 g/ha alone): 0
- LAMPU Ob (Observed values) ([1]; safener 8.8 g/ha alone): 0
- LAMPU Ob (Observed values) ([1]; safener 17.5 g/ha alone): 0
- LAMPU Ob (Observed values) ([1]; safener 35 g/ha alone): 0
- VERPE Ob ([7]; 17.5 g/ha): 0
- VERPE Ob ([7]; 35 g/ha): 0
- VERPE Ob ([7]; 70 g/ha): 0
- VERPE Ob ([7]; 140 g/ha): 0
- HORVW Ob (Observed values) (barley (HORVW); safener 4.4 g/ha alone): 0%
- HORVW Ob (Observed values) (barley (HORVW); safener 8.8 g/ha alone): 0%
- HORVW Ob (Observed values) (barley (HORVW); safener 17.5 g/ha alone): 0%
- HORVW Ob (Observed values) (barley (HORVW); safener 35 g/ha alone): 0%
- SASKR Ob ([8]; 17.5 g/ha): 0
- SASKR Ob ([8]; 35 g/ha): 0
- SASKR Ob ([8]; 70 g/ha): 0
- SASKR Ob ([8]; 140 g/ha): 0
- GALAP Ob ([9]; 17.5 g/ha): 0
- GALAP Ob ([9]; 35 g/ha): 0
- GALAP Ob ([9]; 70 g/ha): 0
- GALAP Ob ([9]; 140 g/ha): 0
- TRZAW Ob (Observed values) ([2]; safener 4.4 g/ha alone): 0%
- TRZAW Ob (Observed values) ([2]; safener 8.8 g/ha alone): 0%
- TRZAW Ob (Observed values) ([2]; safener 17.5 g/ha alone): 0%
- TRZAW Ob (Observed values) ([2]; safener 35 g/ha alone): 0%
- STEME Ob ([10]; 17.5 g/ha): 0
- STEME Ob ([10]; 35 g/ha): 0
- STEME Ob ([10]; 70 g/ha): 0
- STEME Ob ([10]; 140 g/ha): 0
- VIOTR Ob ([11]; 17.5 g/ha): 0
- VIOTR Ob ([11]; 35 g/ha): 0
- VIOTR Ob ([11]; 70 g/ha): 0
- VIOTR Ob ([11]; 140 g/ha): 0
- TRZAS Ob ([3]; 17.5 g/ha): 0%
- TRZAS Ob ([3]; 35 g/ha): 0%
- TRZAS Ob ([3]; 70 g/ha): 0%
- TRZAS Ob ([3]; 140 g/ha): 0%
- TRZAS Ob (Observed values) ([3]; safener 4.4 g/ha alone): 0
- TRZAS Ob (Observed values) ([3]; safener 8.8 g/ha alone): 0
- TRZAS Ob (Observed values) ([3]; safener 17.5 g/ha alone): 0
- TRZAS Ob (Observed values) ([3]; safener 35 g/ha alone): 0
- TRZDU Ob (Observed values) ([4]; safener 4.4 g/ha alone): 0%
- TRZDU Ob (Observed values) ([4]; safener 8.8 g/ha alone): 0%
- TRZDU Ob (Observed values) ([4]; safener 17.5 g/ha alone): 0%
- TRZDU Ob (Observed values) ([4]; safener 35 g/ha alone): 0%
- POLCO Ob ([12]; 17.5 g/ha): 0
- POLCO Ob ([12]; 35 g/ha): 0
- POLCO Ob ([12]; 70 g/ha): 0
- POLCO Ob ([12]; 140 g/ha): 0
- HORVS Ob ([5]; 17.5 g/ha): 0%
- HORVS Ob ([5]; 35 g/ha): 0%
- HORVS Ob ([5]; 70 g/ha): 0%
- HORVS Ob ([5]; 140 g/ha): 0%
- HORVS Ob (Observed values) ([5]; safener 4.4 g/ha alone): 0
- HORVS Ob (Observed values) ([5]; safener 8.8 g/ha alone): 0
- HORVS Ob (Observed values) ([5]; safener 17.5 g/ha alone): 0
- HORVS Ob (Observed values) ([5]; safener 35 g/ha alone): 0
- PAPRH Ob ([6]; 17.5 g/ha): 0
- PAPRH Ob ([6]; 35 g/ha): 0
- PAPRH Ob ([6]; 70 g/ha): 0
- PAPRH Ob ([6]; 140 g/ha): 0
- PAPRH Ob (Observed values) ([6]; safener 4.4 g/ha alone): 0
- PAPRH Ob (Observed values) ([6]; safener 8.8 g/ha alone): 0
- PAPRH Ob (Observed values) ([6]; safener 17.5 g/ha alone): 0
- PAPRH Ob (Observed values) ([6]; safener 35 g/ha alone): 0
